Each molecule was assayed against T1, IRAK4 (Homo sapiens, UniProt Q9NWZ3) (assay: IRAK-4 activity inhibition assay (Caliper, Peptide 8, 37 μM ATP)). Details: 3.5 nM IRAK4, 1.5 μM Peptide 8, 37 μM ATP, 28° C. 40 minutes; read-out: IRAK-4 activity inhibition IC50.
T1 construct: purchased CARNA Bioscience 09-145
T1 sequence (Q9NWZ3 1-460): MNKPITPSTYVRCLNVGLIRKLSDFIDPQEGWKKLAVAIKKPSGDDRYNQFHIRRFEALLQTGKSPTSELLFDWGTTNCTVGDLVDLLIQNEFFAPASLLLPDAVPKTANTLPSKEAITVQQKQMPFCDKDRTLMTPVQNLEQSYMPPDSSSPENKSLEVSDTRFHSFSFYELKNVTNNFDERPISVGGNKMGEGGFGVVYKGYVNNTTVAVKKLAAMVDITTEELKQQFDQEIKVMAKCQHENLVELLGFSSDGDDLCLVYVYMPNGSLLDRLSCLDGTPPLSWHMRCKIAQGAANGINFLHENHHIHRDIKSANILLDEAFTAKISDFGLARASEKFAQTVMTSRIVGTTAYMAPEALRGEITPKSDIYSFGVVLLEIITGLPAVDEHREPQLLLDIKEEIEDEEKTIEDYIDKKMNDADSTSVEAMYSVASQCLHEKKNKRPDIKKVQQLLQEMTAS
Format: biochemical
Protocol: A 1× kinase base buffer was prepared from 50 mM HEPES, pH 7.5 and 0.0015% Brij-35. A stop buffer was prepared from 100 mM HEPES, pH 7.5, 0.015% Brij-35, 0.2% Coating Reagent #3, and 50 mM EDTA.
Test compound was diluted to 50× of the final desired highest inhibitor concentration in reaction by 100% DMSO. 100 ul of this compound dilution was transferred to a well in a 96-well plate.
Test compound was serially diluted by transferring 30 μl to 60 μl of 100% DMSO in the next well and so forth for a total of 10 concentrations. 100 μl of 100% DMSO was added to two empty wells for no compound control and no enzyme control in the same 96-well plate.
A new 96-well plate was marked as intermediate plate. 5 μl of compound serial dilution was transferred from source plate to the corresponding wells of the intermediate plate. 45 μl of 1× kinase base buffer (KB buffer) was added to each well of the intermediate plate. The intermediate plate was placed for 10 min on a shaker.
5 μl of each well was transferred from the 96-well intermediate plate to a 384-well plate in duplicates. […] A2 of the 96-well plate is transferred to A3 and A4 of the 384-well plate, and so on.
IRAK4 and DTT in 1× kinase base buffer was added.
Assay plate already contained 5 μl of compound in 10% DMSO. Added 10 μl of 2.5× enzyme solution to each well of the 384-well assay plate, except no enzyme control wells. […] Added 10 μl of 1× kinase base buffer to no enzyme control wells in the assay plate. Incubated at room temperature for 10 min.
Added 10 μl of 2.5× peptide solution to each well of the 384-well assay plate. […] Incubated at 28° C. for 40 minutes. Added 25 μl of stop buffer to stop reaction. Collected data on Caliper.
Copied conversion % data from Caliper program. Converted conversion % values to percent inhibition values. Percent inhibition=(max−conversion %)/(max−min)*100, where “max” means the conversion % of DMSO control and “min” means the conversion % of no enzyme control.
The compound numbers correspond to the compound numbers in Table 1. […] “NA” stands for “not assayed.”

Row | IC50 | SMILES
1 | 5 to 20 µM | CC1CCc2sc3ncnc(NC4CCCC(O)C4)c3c2C1 (mixture of isomers) [Compound I-35, 3-((6-methyl-5,6,7,8-tetrahydrobenzo[4,5]thieno[2,3-d]pyrimidin-4-yl)amino)cyclohexanol]
2 | 20 to 50 µM | NC(=O)C1CCN(c2ncnc3sc4c(c23)CCCC4)CC1 [Compound I-2]
3 | 5 to 20 µM | O[C@H]1CC[C@H](Nc2ncnc3sc4c(c23)CCCC4)CC1 [Compound I-4, trans-4-((5,6,7,8-tetrahydrobenzo[4,5]thieno[2,3-d]pyrimidin-4-yl)amino)cyclohexanol]
4 | 20 to 50 µM | c1nc(NC2CCOCC2)c2c3c(sc2n1)CCC3 [Compound I-8]
5 | 20 to 50 µM | Cc1sc2ncnc(N3CCC(C(N)=O)CC3)c2c1C [Compound I-18]
6 | > 50 µM | CCC(C)c1ccc(S(=O)(=O)N2CCN(c3ncnc4sc5c(c34)CCC(C)C5)CC2)cc1 (stereo not drawn) [Compound I-24]
7 | 5 to 20 µM | COc1ccc(OCCN2CCN(c3ncnc4sc5c(c34)CCCC5)CC2)cc1 [Compound I-27]
8 | 5 to 20 µM | Cc1sc2ncnc(N3CCC(C(=O)NCCc4nnc5ccccn45)CC3)c2c1C [Compound I-29]
9 | > 50 µM | CCOc1ccccc1N1CCN(c2ncnc3sc4c(c23)CCC4)CC1 [Compound I-30]
10 | < 5 µM | CN[C@H]1CC[C@H](Nc2ncnc3sc4c(c23)CCC4)CC1 [Compound I-34, trans-N^1-(6,7-dihydro-5H-cyclopenta[4,5]thieno[2,3-d]pyrimidin-4-yl)-N^4-methylcyclohexane-1,4-diamine]
11 | < 5 µM | CCC1CCc2c(sc3ncnc(N[C@H]4CC[C@H](N)CC4)c23)C1 (stereo partly drawn) [Compound I-39, trans-N^1-(7-ethyl-5,6,7,8-tetrahydrobenzo[4,5]thieno[2,3-d]pyrimidin-4-yl)cyclohexane-1,4-diamine]
12 | < 5 µM | CN[C@H]1CC[C@H](Nc2ncnc3sc4c(c23)CC(C)(C)CC4)CC1 [Compound I-41, trans-N^1-(6,6-dimethyl-5,6,7,8-tetrahydrobenzo[4,5]thieno[2,3-d]pyrimidin-4-yl)-N^4-methylcyclohexane-1,4-diamine]
13 | < 5 µM | CN[C@H]1CC[C@H](Nc2ncnc3sc(C)c(C)c23)CC1 [Compound I-44, trans-N^1-(5,6-dimethylthieno[2,3-d]pyrimidin-4-yl)-N^4-methylcyclohexane-1,4-diamine]

More lines, now with the values behind:

Row | SMILES | IC50
14 | OC1CCCC(Nc2ncnc3sc4c(c23)CCC4)C1 (mixture of isomers) [Compound I-15, 3-((6,7-dihydro-5H-cyclopenta[4,5]thieno[2,3-d]pyrimidin-4-yl)amino)cyclohexanol] | 5 to 20 µM
15 | O[C@@H]1CCC[C@H](Nc2ncnc3sc4c(c23)CCC4)C1 (relative stereo) [Compound I-21, cis-3-((6,7-dihydro-5H-cyclopenta[4,5]thieno[2,3-d]pyrimidin-4-yl)amino)cyclohexanol] | 5 to 20 µM
16 | O[C@H]1CCC[C@H](Nc2ncnc3sc4c(c23)CCC4)C1 (relative stereo) [Compound I-22, trans-3-((6,7-dihydro-5H-cyclopenta[4,5]thieno[2,3-d]pyrimidin-4-yl)amino)cyclohexanol] | 5 to 20 µM
17 | CC1CCc2sc3ncnc(N[C@H]4CC[C@H](O)CC4)c3c2C1 (relative stereo) [Compound I-37, trans-4-((6-methyl-5,6,7,8-tetrahydrobenzo[4,5]thieno[2,3-d]pyrimidin-4-yl)amino)cyclohexanol] | 5 to 20 µM
18 | NC(=O)C1CCN(c2ncnc3sc4c(c23)CCCC4)CC1 [Compound I-1] | 5 to 20 µM
19 | CC1CCc2c(sc3ncnc(N4CCC(C(N)=O)CC4)c23)C1 (stereo not drawn) [Compound I-3] | 5 to 20 µM
20 | OC1CCCC(Nc2ncnc3sc4c(c23)CCCC4)C1 (stereo not drawn) [Compound I-5, 3-((5,6,7,8-tetrahydrobenzo[4,5]thieno[2,3-d]pyrimidin-4-yl)amino)cyclohexanol] | < 5 µM
21 | O=C(O)[C@@H]1CC[C@H](Nc2ncnc3sc4c(c23)CCC4)C1 [Compound I-6] | 20 to 50 µM
22 | O[C@H]1CC[C@H](Nc2ncnc3sc4c(c23)CCC4)CC1 [Compound I-7, trans-4-((6,7-dihydro-5H-cyclopenta[4,5]thieno[2,3-d]pyrimidin-4-yl)amino)cyclohexanol] | 5 to 20 µM
23 | NC1CCN(c2ncnc3sc4c(c23)CCC4)CC1 [Compound I-9] | 20 to 50 µM
24 | N[C@H]1CC[C@H](Nc2ncnc3sc4c(c23)CCC4)CC1 [Compound I-10, trans-N^1-(6,7-dihydro-5H-cyclopenta[4,5]thieno[2,3-d]pyrimidin-4-yl)cyclohexane-1,4-diamine] | < 5 µM
25 | CC(=O)N[C@H]1CC[C@H](Nc2ncnc3sc4c(c23)CCC4)CC1 [Compound I-11, N-(trans-4-((6,7-dihydro-5H-cyclopenta[4,5]thieno[2,3-d]pyrimidin-4-yl)amino)cyclohexyl)acetamide] | 5 to 20 µM
26 | CCC1CCc2c(sc3ncnc(N4CCC(C(=O)NC)CC4)c23)C1 (stereo not drawn) [Compound I-13] | 5 to 20 µM
27 | CCC1CCc2c(sc3ncnc(N4CCC(C(=O)NO)CC4)c23)C1 (stereo not drawn) [Compound I-14] | < 5 µM
28 | CCC1CCc2c(sc3ncnc(N4CCN(C)CC4)c23)C1 (stereo not drawn) [Compound I-16] | 5 to 20 µM
29 | CCC1CCc2c(sc3ncnc(N4CCC(C(N)=O)CC4)c23)C1 (stereo not drawn) [Compound I-17] | 5 to 20 µM
30 | Cc1sc2ncnc(N[C@H]3CC[C@H](O)CC3)c2c1C [Compound I-19, trans-4-((5,6-dimethylthieno[2,3-d]pyrimidin-4-yl)amino)cyclohexanol] | 5 to 20 µM
31 | CCC1CCc2c(sc3ncnc(NC4CCN(Cc5ccccc5)CC4)c23)C1 (stereo not drawn) [Compound I-20] | 20 to 50 µM
32 | CC1CCc2c(sc3ncnc(N4CCN(S(=O)(=O)c5ccc(C(C)(C)C)cc5)CC4)c23)C1 (stereo not drawn) [Compound I-23] | 20 to 50 µM
33 | Cc1sc2ncnc(N3CCC(C(=O)NCc4ccc(S(N)(=O)=O)cc4)CC3)c2c1C [Compound I-25] | 5 to 20 µM
34 | CC1CCc2c(sc3ncnc(N4CCC5(CC4)NC(=O)NC5=O)c23)C1 (stereo not drawn) [Compound I-28] | 5 to 20 µM
35 | Cc1sc2ncnc(N3CCC(C(=O)Nc4ccc(C#N)c(Cl)c4)CC3)c2c1C [Compound I-31] | 5 to 20 µM
36 | Cc1sc2ncnc(N3CCC(C(=O)Nc4cc(Cl)ccc4Cl)CC3)c2c1C [Compound I-32] | 5 to 20 µM
37 | O=C(NCC(F)(F)F)C1CCN(c2ncnc3sc4c(c23)CCC4)CC1 [Compound I-33] | 20 to 50 µM
38 | CC1CCc2sc3ncnc(N4CCC(C(N)=O)CC4)c3c2C1 (stereo not drawn) [Compound I-36] | 5 to 20 µM
39 | CC1(C)CCc2sc3ncnc(N[C@H]4CC[C@H](N)CC4)c3c2C1 [Compound I-38, trans-N^1-(6,6-dimethyl-5,6,7,8-tetrahydrobenzo[4,5]thieno[2,3-d]pyrimidin-4-yl)cyclohexane-1,4-diamine] | < 5 µM
40 | CN(C)[C@H]1CC[C@H](Nc2ncnc3sc4c(c23)CC(C)(C)CC4)CC1 [Compound I-40, trans-N^1-(6,6-dimethyl-5,6,7,8-tetrahydrobenzo[4,5]thieno[2,3-d]pyrimidin-4-yl)-N^4,N^4-dimethylcyclohexane-1,4-diamine] | < 5 µM
41 | CC1(C)CCc2sc3ncnc(N[C@H]4CC[C@H](O)CC4)c3c2C1 [Compound I-43, trans-4-((6,6-dimethyl-5,6,7,8-tetrahydrobenzo[4,5]thieno[2,3-d]pyrimidin-4-yl)amino)cyclohexanol] | 5 to 20 µM
42 | C[C@@H]1CCc2sc3ncnc(N4CCC(C(N)=O)CC4)c3c2C1 [Compound I-45] | 5 to 20 µM
